pIC50: −log10 of the molar value.
How the values were obtained:
A549 = test: Cytotoxicity against human A549 non small cell lung cell lines; type: functional, cell-based
A121 = test: Cytotoxicity against human A121 ovarian cells; type: functional, cell-based
HT-29 = test: Cytotoxicity against human colon HT-29 cell lines; type: functional, cell-based
MCF7 [1] = test: Cytotoxicity against adriamycin resistant human breast MCF-7 cancer cell lines; type: functional, cell-based
MCF7 [2] = test: Cytotoxicity against human breast MCF-7 cancer cell lines; type: functional, cell-based
P388 [3] = test: In vitro cytotoxicity against doxorubicin resistant P388 cell lines; type: functional, cell-based; conditions: Mus musculus
P388 [4] = test: Microtubule disassembly inhibitory activity against murine P388 cell line relative to the activity of paclitaxel; type: functional, Mus musculus
P388 [5] = test: In vitro cytotoxicity against murine P388 cell lines; type: functional, cell-based; conditions: Mus musculus
Mus musculus [6] = species: Mus musculus; test: Cell kill against B16 melanoma cell lines at a concentration of 0.4 mL per mouse on days 5,7,9 in B6D2F1 mice; type: functional
Mus musculus [7] = species: Mus musculus; test: Time for median tumor to reach 1000 mg was determined against B16 melanoma cell lines at a concentration of 0.4 mL per mouse on days 5,7,9 in B6D2F1 mice; type: functional
Mus musculus [8] = test: In vivo antitumor activity administered iv, at a concentration of 20 mg/kg/day per mouse was determined against B16 melanoma cell lines on days 5,7,9 in B6D2F1 mice; type: functional
Mus musculus [9] = test: In vivo antitumor activity administered iv, at a concentration of 12.4 mg/kg/day per mouse was determined against B16 melanoma cell lines on days 5,7,9 in B6D2F1 mice; type: functional

SMILES | pIC50 (A549) | pIC50 (A121) | pIC50 (HT-29) | pIC50 (MCF7 [1]) | pIC50 (MCF7 [2]) | pIC50 (P388 [3]) | Ratio (P388 [4]) | pIC50 (P388 [5]) | Log cell kill (Mus musculus [6]) | Median tumor (Mus musculus [7]) [days] | T/C (Mus musculus [8]) [%] | T/C (Mus musculus [9]) [%]
C/C=C/[C@H](NC(=O)OC(C)(C)C)[C@@H](O)C(=O)O[C@H]1C[C@@]2(O)[C@@H](OC(=O)c3ccccc3)C3[C@](C)(C(=O)[C@H](OC(C)=O)C(=C1C)C2(C)C)[C@@H](O)C[C@H]1OC[C@@]31OC(C)=O (stereo partly specified) | 9.27 | 9.05 | 9.12 | 7.85 | 9.29 | – | – | – | – | – | – | –
CC(=O)O[C@H]1C(=O)[C@@]2(C)C([C@H](OC(=O)c3ccccc3)[C@]3(O)C[C@H](OC(=O)[C@H](O)[C@H](CC(C)C)NC(=O)OC(C)(C)C)C(C)=C1C3(C)C)[C@]1(OC(C)=O)CO[C@@H]1C[C@@H]2O (stereo partly specified) | 9.01 | 8.42 | 8.49 | 7.44 | 8.40 | – | – | – | – | – | – | –
CC(=O)O[C@@]12CO[C@@H]1C[C@H](O)[C@@]1(C)C(=O)[C@H](O)C3=C(C)[C@@H](OC(=O)[C@H](O)[C@H](/C=C/c4ccccc4)NC(=O)OC(C)(C)C)C[C@@](O)([C@@H](OC(=O)c4ccccc4)C12)C3(C)C (stereo partly specified) | – | – | – | – | – | 5.13 | 1.45 | 6.58 | – | – | – | –
CC(=O)O[C@@]12CO[C@@H]1C[C@H](O)[C@@]1(C)C(=O)[C@H](O)C3=C(C)[C@@H](OC(=O)[C@H](O)[C@H](CC(C)C)NC(=O)OC(C)(C)C)C[C@@](O)([C@@H](OC(=O)c4ccccc4)C12)C3(C)C (stereo partly specified) | 9.15 | 8.72 | 9.20 | 7.92 | 9.26 | 5.80 | 0.78 | 7.91 | 1.97 | 26.03 | 5 | –
CC(=O)O[C@@]12CO[C@@H]1C[C@H](O)[C@@]1(C)C(=O)[C@H](O)C3=C(C)[C@@H](OC(=O)[C@H](O)[C@H](CC(C)(C)C)NC(=O)OC(C)(C)C)C[C@@](O)([C@@H](OC(=O)c4ccccc4)C12)C3(C)C (stereo partly specified) | – | – | – | – | – | 5.16 | 1.45 | 6.90 | – | – | – | –
CC(=O)O[C@@]12CO[C@@H]1C[C@H](O)[C@@]1(C)C(=O)[C@H](O)C3=C(C)[C@@H](OC(=O)[C@H](O)[C@H](C=C(C)C)NC(=O)OC(C)(C)C)C[C@@](O)([C@@H](OC(=O)c4ccccc4)C12)C3(C)C (stereo partly specified) | – | – | – | – | – | 5.63 | 0.64 | 7.89 | 2.25 | 27.54 | – | 8
CC(=O)O[C@H]1C(=O)[C@@]2(C)C([C@H](OC(=O)c3ccccc3)[C@]3(O)C[C@H](OC(=O)[C@H](O)[C@H](C=C(C)C)NC(=O)c4ccccc4)C(C)=C1C3(C)C)[C@]1(OC(C)=O)CO[C@@H]1C[C@@H]2O (stereo partly specified) | 9.35 | 8.85 | 9.02 | 6.95 | 9.27 | – | – | – | – | – | – | –
CC(=O)O[C@@]12CO[C@@H]1C[C@H](O)[C@@]1(C)C(=O)[C@H](O)C3=C(C)[C@@H](OC(=O)[C@H](O)[C@@H](NC(=O)OC(C)(C)C)c4ccccc4)C[C@@](O)([C@@H](OC(=O)c4ccccc4)[C@H]21)C3(C)C.O.O.O [DOCETAXEL] | – | – | – | – | – | 5.73 | 0.7 | 8.00 | – | – | – | –

Source: ChEMBL document CHEMBL1151062, “Synthesis and biological activity of 3-alkyl- and 3-alkenyl-3-dephenyldocetaxels” (Bioorg Med Chem Lett, 1994)
